From article PMC8765781, “A platform of assays for the discovery of anti-Zika small-molecules with activity in a 3D-bioprinted outer-blood-retina model” (PLoS ONE, 2022)
Where two headings read alike, the source gives them in different places.

Experiments:
[1] = system: ZIKV-mCherry in 3D-oBRB tissue; type: cell-based, Zika virus
[2] = system: ZIKV-mCherry in iPSC-derived RPE monoculture; type: cell-based, Zika virus
[3] = system: mCherry-ZIKV in human neuronal progenitor cells; assay: microbe, parasite or virus in culture; type: cell-based, Zika virus; details: for IC50 / AC50: Zika virus, Neuronal progenitor cell; for IC50: read-out: NPC (ZIKV Antiviral Assays), IC50
[4] = system: ZIKV-RLuc (Cambodian strain FSS13025); assay: microbe, parasite or virus in culture; type: cell-based, Zika virus; details: Zika virus, Vero, 48 h, read-out: Rluc-ZIKV (ZIKV Antiviral Assays), IC50
in vitro [5] = details: human
in vitro [6] = details: human; remark: listed apart in the source
[7] = system: ZIKV-mCherry (Cambodian strain FSS13025); assay: microbe, parasite or virus in culture; type: cell-based, Zika virus; details: for AC50: Zika virus, Vero
[8] = system: caspase-3 activity induced by ZIKV in Vero cells; assay: cells; type: cell-based; details: Zika virus, read-out: Caspase 3 (ZIKV Antiviral Assays), IC50
[9] = system: DENV (Dengue virus type 2, strain New Guinea C)
in vitro [10] = details: African green monkey
[11] = system: wild-type ZIKV (Ugandan MR766 strain) in Vero cells; assay: ZIKV cytopathic effect (CPE) inhibition qHTS assay, CellTiter-Glo readout; type: cell-based, Zika virus; details: for AC50 / IC50: Zika virus; for IC50: read-out: ZIKV-infection (CPE, ZIKV Antiviral Assays), IC50
[12] = read-out: Log AC50 (M) (converted)
[13] = Vero, read-out: Log AC50 (M) (converted)

SMILES: CO[C@@H]1[C@H](N(C)C(=O)c2ccccc2)C[C@H]2O[C@]1(C)n1c3ccccc3c3c4c(c5c6ccccc6n2c5c31)C(=O)NC4 [midostaurin]
- Retention of barrier function (TEER) [1]: about 40%
- Effect on barrier function [2]: exacerbated the barrier function loss

SMILES: COC(=O)[C@]12CCCC(C)(C)C1CCc1cc(C(C)C)c(O)c(O)c12 (stereo partly shown) [NCGC00380281-01]
- CC-v2 (curve class) [3]: 4
- Efficacy [3]: -22.278
- Max Resp [3]: -14.815
- IC50 [3]: 31.6 µM
- IC50 [4]: 25.6 µM
- CC50 (in vitro [5]): > 30 µM
- CC50 at 24 h (in vitro [6]): > 30 µM
- CC-v2 (curve class of the dose response curve) [7]: -1.4
- Efficacy (difference between neutral response and maximum compound response) [7]: -82.117
- Max Resp (difference between neutral response and response at highest compound concentration) [7]: -100.29
- YFV active Yes/No (YFV (YFV 17D)): No
- IC50 ([8]; ZIKV-infected Vero cells, 48 hr, unit inferred): 12.9 µM
- DENV active Yes/No [9]: No
- ZIKV active Yes/No (ZIKV): No
- CC50 at 48 h (in vitro [10]): > 50 µM
- AC50 ([11]; Vero, from Hill fit of the response curve, 50% of maximum activity response, 194 cherry-picked compounds, protocol name not given, read-out: AC50): 7.18e-06 M
- AC50 ([11]; Vero, potency in log units (Molar) from Hill fit of the response curve, 194 cherry-picked compounds, protocol name not given, read-out: Log AC50 (converted)): 7.18e-06 M
- IC50 ([11]; Vero cells, wild-type ZIKV MOI 1, 48 hr, unit inferred): 7.18 µM
- Efficacy ([11]; difference between neutral response and maximum compound response): -21.701
- WHV active Yes/No (WNV (Kern515/WN02)): No

SMILES: C=C(C)[C@@]12O[C@@H]1[C@@]1(C)C(=CC2=O)CC[C@@H](OC(C)=O)[C@@H]1C [NCGC00380955-01, 3-Acetyl-13-deoxyphomenone]
- Antiviral activity in human NPC [3]: effectively inhibited ZIKV in NPC cells
- CC-v2 (curve class) [3]: -1.2
- Efficacy [3]: -81.826
- Max Resp [3]: -89.257
- AC50 [3]: 1.26e-05 M
- AC50 [3, 12]: 1.26e-05 M
- IC50 [3]: 12.6 µM
- IC50 [4]: 2.33 µM
- CC-v2 (curve class of the dose response curve) [7]: -1.2
- Efficacy (difference between neutral response and maximum compound response) [7]: -59.673
- Max Resp (difference between neutral response and response at highest compound concentration) [7]: -100.008
- AC50 [7]: 1.5e-06 M
- AC50 [7, 12]: 1.5e-06 M
- Retention of barrier function (TEER) [1]: 30%
- Activity against YFV (YFV (YFV 17D)): pan-activity against all four screened flaviviruses
- SI value YFV (CC50/EC50) (YFV (YFV 17D)): 5
- Selectivity Index YFV (CC50/EC50) (YFV (YFV 17D)): 5
- YFV active Yes/No (YFV (YFV 17D)): Yes
- IC50 ([8]; Vero, 48 h): 1.66 µM
- Activity against DENV [9]: pan-activity against all four screened flaviviruses
- DENV active Yes/No [9]: Yes
- SI value DENV (CC50/EC50) [9]: 14
- Selectivity Index DENV (CC50/EC50) [9]: 14
- Activity against ZIKV (ZIKV): pan-activity against all four screened flaviviruses
- SI value ZIKV (CC50/EC50) (ZIKV): 22
- Selectivity Index ZIKV (CC50/EC50) (ZIKV): 22
- ZIKV active Yes/No (ZIKV): Yes
- CC50 (in vitro [10]): > 50 µM
- CC-v2 (curve class classification of the dose response curve) [11]: -1.2
- Efficacy [11]: -61.612
- AC50 ([11]; Vero): 4.61e-06 M
- IC50 ([11]; Vero, 48 h): 4.61 µM
- AC50 [11, 13]: 4.61e-06 M
- Activity against WNV (WNV (Kern515/WN02)): pan-activity against all four screened flaviviruses
- SI value WHV (CC50/EC50) (WNV (Kern515/WN02)): 9
- Selectivity Index WHV (CC50/EC50) (WNV (Kern515/WN02)): 9
- WHV active Yes/No (WNV (Kern515/WN02)): Yes

SMILES: CCOC(=O)C1=C(C)NC2=C(C(=O)CC(C)(C)C2)C1c1ccc(-c2ccccc2)cc1 (stereo not shown) [NCGC00347947-06]
- Antiviral activity in human NPC [3]: moderate antiviral activity
- CC-v2 (curve class) [3]: -2.1
- Efficacy [3]: -93.817
- Max Resp [3]: -85.476
- AC50 [3]: 3.55e-05 M
- AC50 [3, 12]: 3.55e-05 M
- IC50 [3]: 35.5 µM
- IC50 [4]: 14.7 µM
- CC50 (in vitro [5]): 22.4 µM
- CC50 at 24 h (in vitro [6]): > 30 µM
- CC-v2 (curve class of the dose response curve) [7]: 5
- Efficacy (difference between neutral response and maximum compound response) [7]: -39.533
- Max Resp (difference between neutral response and response at highest compound concentration) [7]: -99.952
- AC50 [7]: 8.43e-07 M
- AC50 [7, 12]: 8.43e-07 M
- YFV active Yes/No (YFV (YFV 17D)): No
- IC50 ([8]; Vero, 48 h): 33.1 µM
- DENV active Yes/No [9]: No
- ZIKV active Yes/No (ZIKV): No
- CC50 at 48 h (in vitro [10]): > 50 µM
- CC-v2 (curve class classification of the dose response curve) [11]: -2.2
- Efficacy [11]: -55.111
- AC50 ([11]; Vero): 2.06e-05 M
- IC50 ([11]; Vero, 48 h): 20.6 µM
- AC50 [11, 13]: 2.06e-05 M
- WHV active Yes/No (WNV (Kern515/WN02)): No

SMILES: O=C(Nc1ccc([N+](=O)[O-])cc1Cl)c1cc(Cl)ccc1O [niclosamide]
- Effect on barrier function [1]: did not recover the barrier function
- Identified as active in CPE assay validation set [11]: identified
- Effect on barrier function [2]: did not recover the barrier function
